Experiment: Metabolic stability assay (in vitro), mouse hepatic microsomes
Type: in vitro ADME
Conditions: mouse liver microsomes, 0.5 μM test compound
Protocol: 3. Metabolic Stability Assay (In Vitro)
Metabolic stability was assessed, generating the in vitro intrinsic clearance (Cli) following incubation of test compound with mouse hepatic microsomes. The assay was performed as previously described (Ruda et al. (2010), “Aryl Phosphoramidates of 5-phosho erythronohydroxamic acid, a new class of potent trypanocidal agents”, J. Med. Chem. 53, pp 6071-6078).
Briefly, each test compound (0.5 μM) was incubated with pooled female mouse liver microsomes (Tebu-Bio, UK; 0.5 mg/ml 50 mM potassium phosphate buffer, pH7.4) and the reaction started with addition of excess NADPH (8 mg/ml 50 mM potassium phosphate buffer, pH7.4) Immediately, at time zero, then at 3, 6, 9, 15 and 30 minutes an aliquot (50 μl) of the incubation mixture was removed and mixed with acetonitrile (100 μl) to stop the reaction. Internal standard was added to all samples. […]
XLfit (IDBS, UK) was used to calculate the exponential decay and consequently the rate constant (k) from the ratio of peak area of test compound to internal standard at each timepoint. The rate of intrinsic clearance (CLi) of each compound was then calculated using the following equation (1): CLi(ml/min/g liver)=k×V×Microsomal protein yield (1) where V (ml/mg protein) is the incubation volume/mg protein added and microsomal protein yield is taken as 52.5 mg protein/g liver. […]

For Clc1cncc(OC[C@@H]2CN(CCN3CCc4ccccc43)CCO2)c1 [Compound 27s, (S)-2-(((5-Chloropyridin-3-yl)oxy)methyl)-4-(2-(indolin-1-yl)ethyl)morpholine], the “mouse hepatic microsomal Cli (intrinsic clearance)” value was 25 mL/min/g.

Reference: patent publication US9079895B2, “Morpholino compounds, uses and methods” (University of Dundee, priority 2012, dated 2015)
